Measurements taken from patent US20240141299A1, “Cofactors FAD and PLP for Promoting Pancreatic Progenitors in Pancreatic Development” (Qatar Foundation for Education, Science and Community …, priority 2022, published 2024).

Legend:
[1] = molecular target: T1, SOX9 HMG domain (Mus musculus, UniProt Q04887); assay: UV-visible absorbance spectroscopy of purified SOX9 HMG domain for bound cofactor; assay type: binding; settings: purified SOX9 HMG domain from bacterial expression; FIG. 1E
T1 construct: construct containing HMG and N-terminal domain, 1-173 amino acids; His tag (pET-28a) (N); made in house; host or cells: E. coli BL21(DE3)-RIL
T1 sequence (Q04887 1-173): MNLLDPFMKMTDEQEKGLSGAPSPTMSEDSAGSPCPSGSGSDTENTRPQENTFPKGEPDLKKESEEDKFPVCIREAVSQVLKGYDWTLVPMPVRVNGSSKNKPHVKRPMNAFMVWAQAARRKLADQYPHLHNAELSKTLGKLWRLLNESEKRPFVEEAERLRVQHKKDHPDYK
Procedure: Purified SOX9 proteins of 2-4 mg/ml concentration are used for reading the absorbance of bind cofactors. The UV-Vis spectra are obtained on a UV-Vis spectrophotometer BMS (Biotechnology Medical Science) UV-1602, scanning from 300 nm to 800 nm. The baseline is corrected with the buffer used to prepare the protein samples.

[2] = system: hiPSC-derived pancreatic progenitors; assay: Immunostaining of PDX1 and NKX6.1 in FAD-treated pancreatic progenitors; assay type: cell-based, human; settings: different FAD concentrations during four days of pancreatic progenitor stage; FIG. 6
Procedure: (§1) Human induced pluripotent stem cells (hiPSCs) are cultured and maintained using mTeSR Plus medium (Stem Cell Technologies, Canada), then plated on 1:50 Matrigel-coated dishes (Corning, USA). Upon reaching 70-80% confluency, cells are differentiated into pancreatic progenitors using a protocol described by Memon et al. (Memon et al. Stem Cell Research and Therapy, 9, Article 15, 2018). Cells are treated with different concentrations of FAD (0.25 μM, 0.5 μM, and 1 μM) (Sigma-Aldrich, Germany) during the four days of pancreatic progenitor stage of in vitro differentiation. The control cells are treated with water. After the treatment period, cells are fixed and immunostaining is performed using previously reported protocols by Memon et al. Cells are also collected for total protein extraction using Radioimmunoprecipitation Assay (RIPA) lysis buffer and are normalized to 20 ng/μL before SDS-PAGE separation. Nitrocellulose membranes are blocked using 15% skimmed milk in 0.5% tris-buffered saline (TBST). Membranes are then incubated with primary antibodies overnight at 4° C. Membranes are washed with 0.5% TBST and secondary antibodies are added for 1 hour at room temperature. Membranes are developed using SuperSignal West Pico Chemiluminescent substrate (Pierce, Loughborough, UK) and are then visualized using iBright™ CL 1000 Imaging System (Invitrogen).

[3] = molecular target: T2, SOX2 HMG domain (Homo sapiens, UniProt P48431); assay: UV-visible absorbance spectroscopy of purified SOX2 HMG domain for bound cofactor; assay type: binding; settings: purified SOX2 HMG domain from bacterial expression
T2 construct: made in house

[4] = system: hiPSC-derived pancreatic progenitors; assay: Expression of pancreatic developmental markers after cofactor treatment of differentiating hiPSCs (FIG. 5, FIG. 8); assay type: cell-based, human
Procedure: Human induced pluripotent stem cells (hiPSCs) are cultured and maintained using mTeSR Plus medium (Stem Cell Technologies, Canada), then plated on 1:50 Matrigel-coated dishes (Corning, USA). Upon reaching 70-80% confluency, cells are differentiated into pancreatic progenitors using a protocol described by Memon et al. (Memon et al. Stem Cell Research and Therapy, 9, Article 15, 2018). Cells are treated with different concentrations of FAD (0.25 μM, 0.5 μM, and 1 μM) (Sigma-Aldrich, Germany) during the four days of pancreatic progenitor stage of in vitro differentiation. The control cells are treated with water.

[5] = system: hiPSC-derived pancreatic progenitors; assay: Western blotting of transcription factors in FAD-treated pancreatic progenitors; assay type: cell-based, human; settings: FIG. 7
Procedure: as §1

[6] = molecular target: T1, SOX9 HMG domain; assay: 1D-PAGE in-gel digest and LC-MS/MS of SOX9 HMG domain to identify bound cofactor; assay type: binding; settings: purified SOX9 HMG domain; FIG. 2
Procedure: MS data are analyzed and annotated with Genedata Expressionist software (v.13.0.1) using the Peptide Mapping Tool. The raw MS data are processed using two Genedata modules: Refiner MS for data pre-processing, and Analyst for data post-processing and statistical analyses. Briefly, after noise reduction, LC-MS1 base peaks are detected and their properties calculated (m/z and RT boundaries, m/z and RT center values, intensity). Chromatograms are further aligned based on the RT spectra using a 2 min range. Individual peaks are grouped into clusters and MS/MS data associated to these clusters are annotated with the Peptide Mapping Tool using the FASTA sequence of sp|Q04887|SOX9_MOUSE Transcription factor SOX-9. The search is performed with a peptide tolerance of 0.1 Da, a MS/MS tolerance of 0.01 Da, two allowed missed cleavages, and only annotations with a minimum score of 10 are considered. As variable modifications, the following parameters are applied: carbamidomethyl (C) maximum: 2 per sequence allowed: anywhere, FAD (C), FAD (H), FAD (Y) maximum: 2 per sequence allowed: anywhere, FMN (S), FMN (T) maximum: 2 per sequence allowed: anywhere, pyridoxal phosphate (K) maximum: 2 per sequence allowed: anywhere, and pyridoxal phosphate H2 (K) maximum: 2 per sequence allowed: anywhere.

T2 sequence (P48431 41-109 limits assumed): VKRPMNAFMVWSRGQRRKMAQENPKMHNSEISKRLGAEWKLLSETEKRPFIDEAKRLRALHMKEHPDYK

| SMILES | absorbance peak at approximately 420 nm (FAD-bound protein) [1] | co-expression of PDX1 and NKX6.1 (efficiency of pancreatic progenitor differentiation) [2] | absorbance peak at approximately 420 nm (FAD-bound protein) [3] | relative changes in NGN3 and NKX6.1 ([4]; FAD added to early stage differentiation, FIG. 5) | expression of NGN3 ([4]; about 0.5 μM FAD, FIG. 8A) | PTF1a level (exocrine marker) ([5]; 0.5 μM and 1 μM FAD) | SOX9 level ([5]; FAD 0.25 μM, 0.5 μM, 1 μM, four days of pancreatic progenitor stage) | cofactor binding detected by LC-MS/MS peaks [6] | expression of NGN3 ([4]; about 4 μM-8 μM PLP, FIG. 8B) | expression of PTF1a ([4]; about 4 μM-8 μM PLP, FIG. 8B) |
| --- | --- | --- | --- | --- | --- | --- | --- | --- | --- | --- |
| Cc1cc2nc3c(=O)[nH]c(=O)nc-3n(C[C@H](O)[C@H](O)[C@H](O)COP(=O)(O)OP(=O)(O)OC[C@H]3O[C@@H](n4cnc5c(N)ncnc54)[C@H](O)[C@@H]3O)c2cc1C [FAD, Flavin Adenine Dinucleotide] | peak at approximately 420 nm characteristic of an FAD-bound protein | most of the pancreatic progenitor cells co-expressed PDX1 and NKX6.1 | no obvious peak | appears to increase pancreatic developmental factors | along with NGN3 | increased | increases gradually with increased FAD concentrations | suggestive of FAD, FMN and PLP binding | – | – |
| Cc1cc2nc3c(=O)[nH]c(=O)nc-3n(C[C@H](O)[C@H](O)[C@H](O)COP(=O)(O)O)c2cc1C [FMN, Flavin Mononucleotide] | – | – | – | – | – | – | – | suggestive of FAD, FMN and PLP binding | – | – |
| Cc1ncc(COP(=O)(O)O)c(C=O)c1O [PLP, Pyridoxal 5′-phosphate] | – | – | – | – | – | – | – | suggestive of FAD, FMN and PLP binding | high expression of NGN3 | appearance of PTF1a |
